ChEMBL document CHEMBL1201862, “PubChem BioAssay data set” (2004)
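Values below derive from 48-hour exposures of cells grown in 96-well plates, with endpoints linearly interpolated between the two concentrations bracketing the appropriate inhibition level. At the GI50, growth is halved.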 Calls of active or inactive are those of the source. No stated cut-off is given here; in the data, active = GI50 up to about 1.1 µM and inactive = higher.

Columns and labels:
Assay in all cases: NCI-60 cell line screen, 48 h
XF498 = tested on: XF498
DMS-114 = tested on: DMS-114
HOP-18 = tested on: HOP-18
M19-MEL = tested on: M19-MEL
DLD-1 = tested on: DLD-1
RXF 631 = tested on: RXF 631
KM-20L2 = tested on: KM-20L2
LXFL 529 = tested on: LXFL 529
DMS-273 = tested on: DMS-273

| SMILES | GI50 (XF498) | GI50 (DMS-114) | GI50 (HOP-18) | GI50 (M19-MEL) | GI50 (DLD-1) | GI50 (RXF 631) | GI50 (KM-20L2) | GI50 (LXFL 529) | GI50 (DMS-273) |
| --- | --- | --- | --- | --- | --- | --- | --- | --- | --- |
| O=NN(CCCl)C(=O)NC1CCC(CC2CCC(NC(=O)N(CCCl)N=O)CC2)CC1 (configuration not stated) | 13 µM (inactive) | 24.4 µM (inactive) | > 38 µM (inactive) | 2.7 µM (inactive) | 23.6 µM (inactive) | 41.7 µM (inactive) | > 74.1 µM (inactive) | 36.1 µM (inactive) | 21.9 µM (inactive) |
| O=C1CCCn2c3ccccc3c3ccnc1c32 | 25.4 µM (inactive) | 35 µM (inactive) | 58.3 µM (inactive) | 41.5 µM (inactive) | 38.3 µM (inactive) |  | 51.3 µM (inactive) |  | 46.6 µM (inactive) |
| Cc1cc(O)nc(NN2C(Cl)C(=O)C2c2cccc(O)c2)n1 (configuration not stated) |  | 5.11 µM (inactive) | 2.39 µM (inactive) | 6.19 µM (inactive) |  |  | 10.3 µM (inactive) | 5 µM (inactive) | 3.13 µM (inactive) |
| CCOC(=O)/C(=C/c1ccccn1)C(=O)c1ccccc1 | 16.1 µM (inactive) | 14.3 µM (inactive) | 18.3 µM (inactive) | 13.5 µM (inactive) | 10.4 µM (inactive) | 13.6 µM (inactive) | 15.5 µM (inactive) | 11.1 µM (inactive) | 12.1 µM (inactive) |
| CC(=O)NC1COC(COC(=O)CCCCCCCCCCNC(=O)c2ccc([N+](=O)[O-])c3c(=O)c4ccccc4[nH]c23)C(O)C1OC(C)C(=O)NC(C(=O)NC(CCC(N)=O)C(=O)OCc1ccccc1)C(C)C (configuration not stated) | 5.41 µM (inactive) | 15.4 µM (inactive) | 16.8 µM (inactive) | 3.27 µM (inactive) | 3.21 µM (inactive) | 27.7 µM (inactive) | 16.3 µM (inactive) | 17.7 µM (inactive) | 8.69 µM (inactive) |
| Cc1cccc2c1C(=O)OC2(c1cccc2ccccc12)c1cccc2ccccc12 |  | 40.7 µM (inactive) | 52.6 µM (inactive) | > 100 µM (inactive) | > 100 µM (inactive) | 11.3 µM (inactive) | > 100 µM (inactive) | > 100 µM (inactive) | > 100 µM (inactive) |
| Cc1c2ccc3ccccc3c2c[n+]2ccccc12 |  | 4.35 µM (inactive) |  | 4.48 µM (inactive) | 24 µM (inactive) |  | 19.7 µM (inactive) | 5.36 µM (inactive) | 16.2 µM (inactive) |
| CC1=C2C(O)C(C(C)CO)C(O)CC2(C)C(O)CC1 (configuration not stated) |  | > 100 µM (inactive) |  | > 100 µM (inactive) | > 100 µM (inactive) | > 100 µM (inactive) | > 100 µM (inactive) | > 100 µM (inactive) | > 100 µM (inactive) |
| O=[N+]([O-])c1cccc(C2=NOC3CCCC23)c1 (configuration not stated) |  | > 100 µM (inactive) | > 100 µM (inactive) | > 100 µM (inactive) | > 100 µM (inactive) |  |  | > 100 µM (inactive) | > 100 µM (inactive) |
| CCN(CC)C(=S)SS(C)(=O)=O |  |  | 38.2 µM (inactive) | 16.4 µM (inactive) | 18 µM (inactive) |  |  | 16.4 µM (inactive) | 20.3 µM (inactive) |
| CCOC(=O)C12CC1(C(=O)OCC)C1CCC2C1 (configuration not stated) |  | 74.3 µM (inactive) | > 100 µM (inactive) | > 100 µM (inactive) | > 100 µM (inactive) | > 100 µM (inactive) |  | > 100 µM (inactive) | > 100 µM (inactive) |
| Cc1cccc(/N=C2\NC(=O)C(CC(=O)Nc3ccc(C)cc3C)S2)c1 (configuration not stated) | 53.1 µM (inactive) | 49.8 µM (inactive) |  | > 100 µM (inactive) | > 100 µM (inactive) |  | 97.7 µM (inactive) | > 100 µM (inactive) | > 100 µM (inactive) |
| O=P1(Oc2ccc(Cl)cc2Cl)Oc2ccc3ccccc3c2-c2c(ccc3ccccc23)O1 | 24.5 µM (inactive) |  | 61.5 µM (inactive) | 19.9 µM (inactive) | 32.1 µM (inactive) |  | 33.5 µM (inactive) |  | 41.3 µM (inactive) |
| O/N=C1/C(=C/c2ccc(F)cc2)CCCC1C(NO)c1ccc(F)cc1 (configuration not stated) | 64 µM (inactive) | 29.9 µM (inactive) | 21.1 µM (inactive) | 38.3 µM (inactive) | 65.2 µM (inactive) | 33 µM (inactive) | 28.8 µM (inactive) | 38.4 µM (inactive) | 40.6 µM (inactive) |
| CO/C1=C\C(C)=C\C(C)C(O)C(C)C/C(C)=C/C=C/C(OC)C(C(C)C(O)C(C)C2(O)CC(O)C(C)C(C(C)C)O2)OC1=O (configuration not stated) | 0.0242 µM (active) | 0.00458 µM (active) | 10.1 µM (inactive) | 0.00374 µM (active) | 7.05e-05 µM (active) |  | 1.12e-05 µM (active) | 0.000323 µM (active) | 0.000261 µM (active) |
| C/C=C/CP(=O)(c1ccccc1)c1ccccc1 | > 100 µM (inactive) | > 100 µM (inactive) | > 100 µM (inactive) | > 100 µM (inactive) | > 100 µM (inactive) |  | > 100 µM (inactive) | > 100 µM (inactive) | > 100 µM (inactive) |
| COC(=O)C1=C(C)N(NC(=O)c2ccccc2)C2(O)CCCC(=O)C12C (configuration not stated) | > 100 µM (inactive) | > 100 µM (inactive) | < 0.01 µM (active) |  | > 100 µM (inactive) | > 100 µM (inactive) | > 100 µM (inactive) | > 100 µM (inactive) | > 100 µM (inactive) |
| O=c1c2ccccc2sc2nc(O)nn12 | > 100 µM (inactive) |  | > 100 µM (inactive) | > 100 µM (inactive) | > 100 µM (inactive) | > 100 µM (inactive) | > 100 µM (inactive) | > 100 µM (inactive) | > 100 µM (inactive) |
| C/C(=C1/N=C(c2cc([N+](=O)[O-])ccc2Cl)N(C2=CC=C(Cl)CC2)C1=O)c1cc2ccccc2oc1=O |  | 19.3 µM (inactive) | 21.2 µM (inactive) | 45.5 µM (inactive) | 20 µM (inactive) | 56 µM (inactive) | 18.7 µM (inactive) | 13.1 µM (inactive) |  |
| CC(=O)OC(CCC1(C)OC1COc1ccc(CCNC(=O)C=C(C)C)cc1)C(C)(C)OC(C)=O (configuration not stated) | 23.2 µM (inactive) | 0.19 µM (active) | > 100 µM (inactive) | 19.7 µM (inactive) |  |  | 62.1 µM (inactive) | 12.7 µM (inactive) | 22.5 µM (inactive) |
| COc1nc2[nH]ccc2c(=O)n1C | > 100 µM (inactive) | > 100 µM (inactive) | > 100 µM (inactive) |  | > 100 µM (inactive) | > 100 µM (inactive) |  | > 100 µM (inactive) | > 100 µM (inactive) |
| COc1cccc2c1C(=O)c1c(O)c3c(c(O)c1C2=O)C[C@@](O)(C(=O)CO)CC3OC1CC(NCCCCC(OC(C)=O)OC(C)=O)C(O)C(C)O1 (some centres not stated) |  | 0.00402 µM (active) | 0.0033 µM (active) | 0.00345 µM (active) | 0.00342 µM (active) | 0.00137 µM (active) | 0.00242 µM (active) | 0.00214 µM (active) |  |
| NC(CO)c1ccccc1 (configuration not stated) | > 100 µM (inactive) | > 100 µM (inactive) | 24.7 µM (inactive) |  | > 100 µM (inactive) |  | > 100 µM (inactive) | > 100 µM (inactive) | > 100 µM (inactive) |
| COc1ccc2[nH]c3c(C)c4cc[n+](C)cc4c(C)c3c2c1 |  | 0.412 µM (active) | 3.59 µM (inactive) | 0.944 µM (active) | 1.87 µM (inactive) |  | 3.17 µM (inactive) |  | 1.09 µM (active) |
| Cn1cnc([N+](=O)[O-])c1Sc1nccc(O)n1 | > 100 µM (inactive) | > 100 µM (inactive) | > 100 µM (inactive) | > 100 µM (inactive) | > 100 µM (inactive) | > 100 µM (inactive) |  | > 100 µM (inactive) | > 100 µM (inactive) |
